Tests used:
Format in all cases: cell-based
MAPK path = assay: Western blotting of MAPK path proteins in liver cancer cells; settings: 10^-6 M U0126 for 4 hours, then MPA+leptin for 3 hours
Source text: Please refer to FIG. 12, which is a view showing expression of MAPK path after applied with a drug. As shown in the figure, after proteins for the JAK2/STAT3 path are suppressed, the preferred embodiment analyzes expression of the proteins through western blotting.
(§1) Please refer to FIG. 13A and FIG. 13A, which are views showing expressions of proteins of JAK/STAT path and proteins of MAPK path after applied with a drug for a short time. As shown in the figures, the preferred embodiment processes liver cancer cells with high-dose leptin, high-dose MPA and high-dose leptin combined with high-dose MPA for 30 minutes. Then, related JAK/STAT proteins are collected for analyzing their expressions through western blotting.
Please refer to FIG. 14, which is a view showing reduced p-STAT3 degradation by suppressing the ERK1/2 activation and the PIAS3 expression. […]
(§2) Please refer to FIG. 15A to FIG. 16B, which are views showing cells containing very much leptin within; suppressed growth of the cells by using MPA; and STAT3- and MAPK-signal paths of the cells after MPA is applied. […] Then, after the cells are processed with 10^−4M MPA for 24 hours, cell growth is analyzed through XTT assay. […] Then, after the cells are processed with 10^−4 M MPA for 24 hours, JAK/STAT-related proteins are analyzed through western blotting.

JAK/STAT path = assay: Western blotting of JAK/STAT path proteins in liver cancer cells; settings: 10^-6 M U0126 for 4 hours, then MPA+leptin for 3 hours
Protocol: Please refer to FIG. 11, which is a view showing expression of JAK/STAT path after applied with a drug. As shown in the figure, the preferred embodiment analyzes related proteins of liver cancer cells through western blotting after applied with MPA+leptin for 24 hours.
as §1
Please refer to FIG. 14, which is a view showing reduced p-STAT3 degradation by suppressing the ERK1/2 activation and the PIAS3 expression. […] The preferred embodiment uses a 10^−6M p-ERK1/2 inhibitor (U0126) for 4 hours before a drug is applied; then, liver cancer cells are applied with the drug of MPA+leptin for 3 hours to collect cellular proteins for analyzing expression of related proteins through western blotting. […] As a conclusion, MPA activates ERK1/2 to indirectly induce PIAS3 expression for suppressing p-STAT3 (Tyr705) for cell apoptosis, where leptin enhances activation of ERK1/2 with MPA for increasing cell apoptosis.
as §2

[1] = test system: STAT- and MAPK-related signal paths; assay: Protein expression of STAT- and MAPK-related signal paths in normal liver cell line
Protocol: (§3) Please refer to FIG. 17A to FIG. 18B, which are views showing epithelial cell line of normal liver treated with MPA+leptin for 24 hours and 48 hours respectively; and views showing STAT3- and MAPK-related signal paths after treating cell line of normal liver with MPA+leptin. As shown in the figures, after epithelial cell line of normal liver (THLE-3) is applied with MPA+leptin for […], MPA+leptin's effect on cell growth (i.e. survival rate) is analyzed through XTT assay. […] Besides, in FIG. 18A and FIG. 18B, protein expressions for STAT- and MAPK-related signal paths are analyzed.

[2] = test system: liver cancer cells (hepatocellular carcinoma cell line); assay: XTT assay, growth of liver cancer cells; settings: high-dose leptin (100 ng), 24 hours
Protocol: Please refer to FIG. 2, which is a view showing leptin's effect on growth of liver cancer cells. As shown in the figure, for acquiring effect of leptin on liver cancer cells, the preferred embodiment uses leptin having different doses, where the high-dose leptin has 100 nano-grams (ng) and the low-dose leptin has 10 ng. The 10 ng leptin is conformed to the physiological concentration of normal human body for observing effect of leptin on the cells. In the other hand, the 100 ng leptin is used to show whether a higher levels of leptin obtains a higher effect on the cells.
Please refer to FIG. 3, which is a view showing MPA's effect on growth of liver cancer cells. As shown in the figure, the preferred embodiment applies MPA having different doses to liver cancer cells.
Please refer to FIG. 4, which is a view showing effect of MPA+leptin on growth of liver cancer cells. As shown in the figure, the preferred embodiment applies MPA combined with leptin to liver cancer cells, where MPA has different doses and leptin has different doses.
Please refer to FIG. 9, which is a view showing reduced effect of MPA+leptin by suppressing leptin receptor expression. As shown in the figure, a 20 nano-moles (nM) of leptin receptor, siRNA, is transferred to cells to be cultured a day and is cultured in a serum-free medium for the next day. Then, the cells are processed with MPA+leptin for 24 hours to be analyzed through XTT assay. […] Thus, it is confirmed that leptin enhances MPA's suppression on the cells through the leptin receptor.
Please refer to FIG. 10A and FIG. 10B, which are views showing apoptosis of cells on increasing expression of leptin receptor and expression of progesterone receptor respectively. As shown in the figures, the preferred embodiment makes ob-Rb plasmid transfected to cells to be cultured a day and is cultured in a serum-free medium for the next day. Then, the cells are processed with MPA+leptin for 24 hours to be analyzed through XTT assay. […] Besides, the long-form Ob-R enhances expression of the progesterone receptor. Again, the preferred embodiment makes PgR plasmid transfected to cells to be cultured a day and is cultured in a serum-free medium for the next day. Then, the cells are processed with MPA+leptin for 24 hours to be analyzed through XTT assay.
Please refer to FIG. 15A to FIG. 16B, which are views showing cells containing very much leptin within; suppressed growth of the cells by using MPA; and STAT3- and MAPK-signal paths of the cells after MPA is applied. As shown in the figures, while leptin is added from outside in state 13 to suppress liver cancer cells with MPA+leptin, the preferred embodiment here transfers expression plasmid of leptin (pcLeptin) to liver cancer cells to be cultured for a day; and a serum-free medium is used for the next day. Then, after the cells are processed with 10^−4M MPA for 24 hours, cell growth is analyzed through XTT assay. In FIG. 15A, leptin gene is transferred to cells for a short time for obtaining very much leptin within the cells by themselves. After applying MPA to the cells for 24 hours, it is confirmed that MPA's suppression on liver cancer cells is enhanced by a lot of leptin self-generated within the cells. Moreover, after obtaining a lot of leptin, medium is collected for immunoprecipitation and further western blotting. […] Then, after the cells are processed with 10^−4 M MPA for 24 hours, JAK/STAT-related proteins are analyzed through western blotting.

[3] = test system: epithelial cell line of normal liver (THLE-3); assay: XTT assay, survival of normal liver epithelial cell line; settings: THLE-3, FIG. 17A
Protocol: as §3

| Molecule | PIAS3 (MAPK path) | phosphorylation of ERK1/2 (MAPK path) | expression of p-STAT3 (Tyr705) (JAK/STAT path) | effect on STAT- and MAPK-related signal proteins [1] | effect on growth of liver cancer cells [2] | effect on survival rate of, and poisoning of, normal liver epithelial cells [3] |
| --- | --- | --- | --- | --- | --- | --- |
| N#CC(=C(/N)Sc1ccccc1N)/C(C#N)=C(\N)Sc1ccccc1N [U0126] | not induced | suppressed | suppressed |  |  |  |
| leptin: hormone of single-chain protein; adipokine generated by adipocyte |  |  |  | no obvious effect | no obvious effect | no obvious effect |
